Reference: patent US9051326B2, “Pyrazoline derivatives and their use as selective androgen receptor modulators” (NOVARTIS AG, priority 2011, dated 2015)

Biological target: T1, androgen receptor (AR) (Homo sapiens, UniProt P10275)
T1 construct: transfecting C2C12 cells with a plasmid containing full-length AR along with an AR response element linked to luciferase; expressed in transfected cells; host or cells: mouse myoblastic C2C12 cells (ATCC CRL-1772), transient transfection with Lipofectamine 2000
T1 sequence (P10275 1-920): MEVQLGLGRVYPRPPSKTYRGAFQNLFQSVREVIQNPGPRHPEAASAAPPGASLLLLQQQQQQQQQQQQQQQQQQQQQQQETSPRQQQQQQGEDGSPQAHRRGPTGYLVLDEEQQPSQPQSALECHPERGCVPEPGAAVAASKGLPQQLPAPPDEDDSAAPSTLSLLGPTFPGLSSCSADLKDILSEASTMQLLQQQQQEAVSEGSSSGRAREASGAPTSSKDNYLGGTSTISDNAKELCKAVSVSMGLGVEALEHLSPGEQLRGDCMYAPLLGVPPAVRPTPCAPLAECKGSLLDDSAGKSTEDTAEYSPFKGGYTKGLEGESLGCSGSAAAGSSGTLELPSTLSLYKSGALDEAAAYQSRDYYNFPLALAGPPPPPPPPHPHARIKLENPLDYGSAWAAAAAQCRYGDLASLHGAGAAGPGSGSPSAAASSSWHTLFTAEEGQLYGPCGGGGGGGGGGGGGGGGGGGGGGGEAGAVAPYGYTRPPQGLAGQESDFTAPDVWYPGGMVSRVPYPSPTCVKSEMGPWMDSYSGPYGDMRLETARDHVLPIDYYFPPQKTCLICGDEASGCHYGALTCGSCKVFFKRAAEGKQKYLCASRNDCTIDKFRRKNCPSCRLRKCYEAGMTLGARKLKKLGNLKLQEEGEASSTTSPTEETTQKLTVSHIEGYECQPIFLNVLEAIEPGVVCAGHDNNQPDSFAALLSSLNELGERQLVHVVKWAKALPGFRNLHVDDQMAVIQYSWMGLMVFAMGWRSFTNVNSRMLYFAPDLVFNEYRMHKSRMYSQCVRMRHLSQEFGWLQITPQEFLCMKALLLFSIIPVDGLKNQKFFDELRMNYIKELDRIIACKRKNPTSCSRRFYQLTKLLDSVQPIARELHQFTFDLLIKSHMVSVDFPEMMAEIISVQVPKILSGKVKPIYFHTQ
Test: AR transcriptional activation luciferase reporter assay in C2C12 cells (Test 1)
Format: cell-based
Conditions: not given
Procedure: A suitable assay to determine the ability of a ligand to transcriptionally activate androgen receptor (AR) is carried out using mouse myoblastic C2C12 cells. The assay involves transfecting C2C12 cells with a plasmid containing full-length AR along with an AR response element linked to luciferase (2XIDR17). The luminescence read-out at the end of the assay is measured using Victor 3 and is a direct measure of the transcriptional activity. The assay has been validated using the reference compound, BMS-564929, for which EC50 values have been reported in a similar set-up. Other tool compounds that have been used for assay validation are GSK-420A, Andarine, putative Ostarine, and LGD-2226.
C2C12 cells were obtained from ATCC (Cat # CRL-1772) and maintained in DMEM modified to contain 4 mM L-glutamine, 4.5 g/L glucose, 1 mM sodium pyruvate and 1.5 g/L sodium bicarbonate and 10% FBS.
AR-FL in pcDNA 3.1(+) and 2XIDR17 in pGL4.26 plasmids prepared using Genelute plasmid miniprep kit from Sigma Cat # PLED35
• C2C12 cells were seeded in a 96-well plate in DMEM (Dulbecco's Modified Eagle Medium) without phenol red and containing 10% CS-FBS (Charcoal-stripped Fetal Bovine Serum) at 8000 cells/well. • The next day, cells were transfected with an equimolar ratio of (Androgen Receptor-Full length) AR-FL and 2XIDR17-Luciferase at a total plasmid concentration of 200 ng/well using Lipofectamine 2000 following manufacturer's protocol. • For the transfection, 83 ng of AR-FL and 117 ng of 2XIDR17-Luciferase were in 12.5 μl of OptiMEM—Mix A. 0.4 μl of Lipofectamine 2000 was added to 12.5 μl of OptiMEM and incubated for 5 min at room temperature—Mix B. The two mixes A and B were mixed and incubated at room temperature for an additional fifteen minutes. An additional 50 μl of OptiMEM was added, gently mixed and this mixture was added to the cells in the 96-well plate. The above quantities are requirements per well of a 96-well plate. Master mixes were made for the entire plate, with proportional quantity of reagents being used. • 5 h after transfection, compounds were added to the wells in DMEM without phenol red and containing 10% CS-FBS, maintaining a final DMSO concentration of 0.5%. A typical dose response curve starts at 10 μM and includes a 7-point, log dilution, done in triplicates. • After overnight incubation with the compounds, 100 ul of working solution of Steadyglow reagent was added to the wells. • The plates were placed in a shaker for 15 min at the end of which the lysate containing luciferase was transferred to a white flat-bottom plate and read under a luminescence setting in Victor. • Background subtracted counts (Luminescence from DMSO control wells is considered the background) are used to calculate percentage activity, expressed relative to activity with 1 μM (Dihydrotestosterone) DHT (at least two sets of triplicates for 1 μM DHT are included per plate). Data Fitting: • The EC50 curves for the compounds for 8 compound concentrations were fitted by the respective function using non-linear least-squares regression in Graphpad Prism 4.0 (Graphpad Software, San Diego, Calif., USA).

Row | Structure (SMILES) | EC50 [nM]
1 | COCCO[C@@H]1C(c2ccc(C#N)c(Cl)c2C)=NN2C[C@@H](F)C[C@@H]12 [Example 27] | 65.8
2 | COCCO[C@@H]1C(c2ccc(C#N)c(Cl)c2C)=NN2C[C@H](O)C[C@@H]12 [Example 26] | 158
3 | CCO[C@@H]1C(c2ccc(C#N)c(Cl)c2C)=NN2CC[C@@H](O)[C@@H]12 [Example 6, 2-chloro-4-((3S,3aS,4R)-3-ethoxy-4-hydroxy-3a,4,5,6-tetrahydro-3H-pyrrolo[1,2-b]pyrazol-2-yl)-3-methylbenzonitrile] | 0.6
4 | COCCO[C@@H]1C(c2ccc(C#N)c(Cl)c2C)=NN2CC[C@@H](F)[C@@H]12 [Example 22, 2-chloro-4-((3S,3aR,4R)-4-fluoro-3-(2-methoxyethoxy)-3a,4,5,6-tetrahydro-3H-pyrrolo[1,2-b]pyrazol-2-yl)-3-methylbenzonitrile] | 0.98
5 | COCCCO[C@@H]1C(c2ccc(C#N)c(Cl)c2C)=NN2CC(=O)C[C@@H]12 [Example 30] | 56
6 | Cc1c(C2=NN3CC[C@H](O)[C@H]3[C@@H]2OC(C)C)ccc(C#N)c1Cl [Example 7, 2-chloro-4-((3S,3aS,4S)-4-hydroxy-3-isopropoxy-3a,4,5,6-tetrahydro-3H-pyrrolo[1,2-b]pyrazol-2-yl)-3-methylbenzonitrile] | 4
7 | Cc1c(C2=NN3CC[C@H](O)[C@H]3[C@@H]2OCCF)ccc(C#N)c1Cl [Example 16, 2-chloro-4-((3S,3aS,4S)-3-(2-fluoroethoxy)-4-hydroxy-3a,4,5,6-tetrahydro-3H-pyrrolo[1,2-b]pyrazol-2-yl)-3-methylbenzonitrile] | 2
8 | Cc1c(C2=NN3CC[C@@H](F)[C@H]3[C@@H]2OCCF)ccc(C#N)c1Cl [Example 23, 2-chloro-4-((3S,3aR,4R)-4-fluoro-3-(2-fluoroethoxy)-3a,4,5,6-tetrahydro-3H-pyrrolo[1,2-b]pyrazol-2-yl)-3-methylbenzonitrile] | 0.41
9 | CO[C@@H]1C(c2ccc(C#N)c(Cl)c2C)=NN2C[C@@H](F)C[C@@H]12 [Example 14, 2-chloro-4-((3S,3aS,5S)-5-fluoro-3-methoxy-3a,4,5,6-tetrahydro-3H-pyrrolo[1,2-b]pyrazol-2-yl)-3-methylbenzonitrile] | 1.7
10 | CO[C@@H]1C(c2ccc(C#N)c(Cl)c2C)=NN2CC[C@H](F)[C@@H]12 [Example 13, 2-chloro-4-((3S,3aR,4S)-4-fluoro-3-methoxy-3a,4,5,6-tetrahydro-3H-pyrrolo[1,2-b]pyrazol-2-yl)-3-methylbenzonitrile] | 1.3
11 | COCCO[C@@H]1C(c2ccc(C#N)c(Cl)c2C)=NN2CC(F)(F)C[C@@H]12 [Example 24, 2-chloro-4-((3S,3aS)-5,5-difluoro-3-(2-methoxyethoxy)-3a,4,5,6-tetrahydro-3H-pyrrolo[1,2-b]pyrazol-2-yl)-3-methylbenzonitrile] | 5.6
12 | CO[C@@H]1C(c2ccc(C#N)c(Cl)c2C)=NN2CC(F)(F)C[C@@H]12 [Example 15, 2-chloro-4-((3S,3aS)-5,5-difluoro-3-methoxy-3a,4,5,6-tetrahydro-3H-pyrrolo[1,2-b]pyrazol-2-yl)-3-methylbenzonitrile] | 0.1
13 | CO[C@@H]1C(c2ccc(C#N)c(Cl)c2C)=NN2C[C@H](O)[C@H](O)[C@@H]12 [Example 25, 2-chloro-4-((3S,3aS,4R,5S)-4,5-dihydroxy-3-methoxy-3a,4,5,6-tetrahydro-3H-pyrrolo[1,2-b]pyrazol-2-yl)-3-methylbenzonitrile] | 51.2
14 | COCCO[C@@H]1C(c2ccc(C#N)c(Cl)c2C)=NN2CC(=O)C[C@@H]12 [Example 28] | 175
15 | CO[C@@H]1C(c2ccc(C#N)c(Cl)c2C)=NN2C[C@H](O)C[C@@H]12 [Example 8, 2-chloro-4-((3S,3aS,5R)-5-hydroxy-3-methoxy-3a,4,5,6-tetrahydro-3H-pyrrolo[1,2-b]pyrazol-2-yl)-3-methylbenzonitrile] | 6.7
16 | COCCCO[C@@H]1C(c2ccc(C#N)c(Cl)c2C)=NN2CC(F)(F)C[C@@H]12 [Example 31] | 11.4
17 | CO[C@@H]1C(c2ccc(C#N)c(Cl)c2C)=NN2CC[C@@H](F)[C@@H]12 [Example 12, 2-chloro-4-((3S,3aR,4R)-4-fluoro-3-methoxy-3a,4,5,6-tetrahydro-3H-pyrrolo[1,2-b]pyrazol-2-yl)-3-methylbenzonitrile] | 0.1

Same assay, conditions: 100 nM compound; activity relative to 1 μM DHT

Row | Structure (SMILES) | % Biological activity (C2C12 cell) 100 nM [%]
18 | Cc1c(C2=NN3C[C@H](O)C[C@H]3[C@@H]2O)ccc(C#N)c1Cl [Example 10, 2-chloro-4-((3S,3aS,5R)-3,5-dihydroxy-3a,4,5,6-tetrahydro-3H-pyrrolo[1,2-b]pyrazol-2-yl)-3-methylbenzonitrile] | 4
19 | Cc1c(C2=NN3CC[C@@H](O)[C@H]3[C@@H]2O)ccc(C#N)c1Cl [Example 4, 2-chloro-4-((3S,3aS,4R)-3,4-dihydroxy-3a,4,5,6-tetrahydro-3H-pyrrolo[1,2-b]pyrazol-2-yl)-3-methylbenzonitrile] | 5
20 | Cc1c(C2=NN3CC[C@H](O)[C@H]3[C@@H]2OCC2CC2)ccc(C#N)c1Cl [Example 17, 2-chloro-4-((3S,3aS,4S)-3-(cyclopropylmethoxy)-4-hydroxy-3a,4,5,6-tetrahydro-3H-pyrrolo[1,2-b]pyrazol-2-yl)-3-methylbenzonitrile] | 91

Same assay, conditions: 5 μM compound; activity relative to 1 μM DHT

Row | Structure (SMILES) | % Biological activity (C2C12 cell) 5 μM [%]
21 | Cc1c(C2=NN3C[C@H](O)C[C@H]3[C@@H]2O)ccc(C#N)c1Cl [Example 10, 2-chloro-4-((3S,3aS,5R)-3,5-dihydroxy-3a,4,5,6-tetrahydro-3H-pyrrolo[1,2-b]pyrazol-2-yl)-3-methylbenzonitrile] | 2
22 | Cc1c(C2=NN3CC[C@@H](O)[C@H]3[C@@H]2O)ccc(C#N)c1Cl [Example 4, 2-chloro-4-((3S,3aS,4R)-3,4-dihydroxy-3a,4,5,6-tetrahydro-3H-pyrrolo[1,2-b]pyrazol-2-yl)-3-methylbenzonitrile] | 32
23 | Cc1c(C2=NN3CC[C@H](O)[C@H]3[C@@H]2OCC2CC2)ccc(C#N)c1Cl [Example 17, 2-chloro-4-((3S,3aS,4S)-3-(cyclopropylmethoxy)-4-hydroxy-3a,4,5,6-tetrahydro-3H-pyrrolo[1,2-b]pyrazol-2-yl)-3-methylbenzonitrile] | 100

Same assay, conditions: 5 μM compound; symbol defined in table footnote

Row | Structure (SMILES) | activity at 5 μM concentration (C2C12 cell)
24 | CO[C@@H]1C(c2ccc(C#N)c(Cl)c2C)=NN2C[C@@H](O)C[C@@H]12 [Example 18, 2-chloro-4-((3S,3aS,5S)-5-hydroxy-3-methoxy-3a,4,5,6-tetrahydro-3H-pyrrolo[1,2-b]pyrazol-2-yl)-3-methylbenzonitrile] | ** (at 5 μM concentration, <10% activity)

Same assay, conditions: mouse myoblastic C2C12 cells transfected with AR-FL and 2XIDR17-luciferase; read-out: Biological activity (C2C12 cell) EC50

Row | Structure (SMILES) | EC50 [nM]
25 | COCCO[C@@H]1C(c2ccc(C#N)c(Cl)c2C)=NN2CC[C@H](O)[C@@H]12 [Example 21, 2-chloro-4-((3S,3aS,4S)-4-hydroxy-3-(2-methoxyethoxy)-3a,4,5,6-tetrahydro-3H-pyrrolo[1,2-b]pyrazol-2-yl)-3-methylbenzonitrile] | 0.93
26 | CO[C@H]1CCN2N=C(c3ccc(C#N)c(Cl)c3C)[C@@H](OC)[C@H]12 [Example 20, 2-chloro-4-((3S,3aS,4S)-3,4-dimethoxy-3a,4,5,6-tetrahydro-3H-pyrrolo[1,2-b]pyrazol-2-yl)-3-methylbenzonitrile] | 7.1
